What was measured:
[1] = system: Botrytis cinerea S-9; assay: Disease suppressive activity against gray mold, cucumber seedling cotyledon test; type: in vivo; conditions: strain S-9 (sensitive to antimicrobial agents), incubated at 20°C for three days
Protocol: (§1) The disease suppressive activity of the present compounds I-a, I-c (and I-b), I-d (and I-e), I-f, I-g, I-h, and I-i against the gray mold was tested by the following procedure. A solution of the present compound having a predetermined concentration was coated,with an absorbent cotton block, on the cotyledon of a cucumber seedling seven days after seeding. One day after the coating, an agar disk having a diameter of 5 mm containing Botrytis cinerea was put on the coated cotyledon, the plant was incubated at 20°C for three days, and the disease suppresive activity of the tested compound was observed. In Table 4, Botrytis cinerea RR-4 is a strain resistant to antimicrobial agents (multi-resistant strain), isolated from a diseased seedling of egg plant, and Botrytis cinerea S-9 is a strain sensitive to antimicrobial agents, isolated from a diseased petal of orange blossom. Note, the extent of the disease suppressive effect is expressed by symbols + (no lesion), ± (lesion having a diameter of less than 10 mm formed), and - (lesion having a diameter of not less than 10 mm formed).

[2] = system: Botrytis cinerea RR-4; assay: as above; type: in vivo; conditions: strain RR-4 (multi-resistant strain), incubated at 20°C for three days
Protocol: as §1

[3] = 32 ppm coated on cucumber seedling cotyledon
[4] = 125 ppm coated on cucumber seedling cotyledon
[5] = 8 ppm coated on cucumber seedling cotyledon

Compound | Disease suppressive effect to Botrytis cinerea [1, 3] | Disease suppressive effect to Botrytis cinerea [1, 4] | Disease suppressive effect to Botrytis cinerea [2, 3] | Disease suppressive effect to Botrytis cinerea [2, 4] | Disease suppressive effect to Botrytis cinerea [1, 5] | Disease suppressive effect to Botrytis cinerea [2, 5]
CCC1C=CC(=O)OC1C=CC(O)(CCN)C(CC(O)C=CC=CC1CCCCC1)OP(=O)(O)O (stereo not drawn) [I-a] | - (- (lesion having a diameter of not less than 10 mm formed)) | + | - (- (lesion having a diameter of not less than 10 mm formed)) | + | – | –
CCC1C=CC(=O)OC1C=CC(O)(CCN)C(CC(O)C=CC=CC1CCCC(OC(=O)CCCCC(C)C)C1)OP(=O)(O)O (stereo not drawn) [I-h] | + | – | + | – | - (- (lesion having a diameter of not less than 10 mm formed)) | - (- (lesion having a diameter of not less than 10 mm formed))
CCC1C=CC(=O)OC1C=CC(O)(CCN)C(CC(O)C=CC=CC1CCCC(OC(=O)C2CCCCC2)C1)OP(=O)(O)O (stereo not drawn) [I-f] | + | – | + | – | + | +
CCC(C)CCC(=O)OC1CCCC(C=CC=CC(O)CC(OP(=O)(O)O)C(O)(C=CC2OC(=O)C=CC2CC)CCN)C1 (stereo not drawn) [I-g] | + | – | + | – | + | +
CC12CC1(C)C(=O)N(c1cc(Cl)cc(Cl)c1)C2=O (stereo not drawn) [Procymidone, reference compound] | - (- (lesion having a diameter of not less than 10 mm formed)) | + | - (- (lesion having a diameter of not less than 10 mm formed)) | - (- (lesion having a diameter of not less than 10 mm formed)) | – | –
CCCCCCCC(=O)OC1CCCC(C=CC=CC(O)CC(OP(=O)(O)O)C(O)(C=CC2OC(=O)C=CC2CC)CCN)C1 (stereo not drawn) [I-i] | + | – | + | – | - (- (lesion having a diameter of not less than 10 mm formed)) | - (- (lesion having a diameter of not less than 10 mm formed))
